# Data as given in US20080213910A1, “METHOD FOR BLOCKING NON-SPECIFIC PROTEIN BINDING ON A FUNCTIONALIZED SURFACE” (priority 2006, published 2008).
# Key:
# Carbonic Anhydrase (CA) = assay: CBS binding to carbonic anhydrase after blocking with 5% trehalose (PWV shift); conditions: 5% trehalose block
# Description: FIG. 5 represents the normalized peak wavelength value (PWV) resulting from CBS binding to carbonic anhydrase after blocking with 5% trehalose.
# The CA surface was blocked with 5% trehalose. Trehalose blocking of non-specific interactions of CBS to the surface enabled detection of specific binding to CA below 1 μM.
# SA surface [1] = target: T1, SA surface (Streptomyces avidinii, UniProt P22629); assay: Biotin binding to SA surface in FBS, with and without trehalose blocking; conditions: for shift from biotin binding to SA surface: SA shift 5.8 nm
# T1 sequence (P22629 25-183): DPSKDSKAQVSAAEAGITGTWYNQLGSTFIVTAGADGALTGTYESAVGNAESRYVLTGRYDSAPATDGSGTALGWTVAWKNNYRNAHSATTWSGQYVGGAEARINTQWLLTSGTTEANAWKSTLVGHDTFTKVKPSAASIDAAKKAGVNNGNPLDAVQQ
# Description: In order to test the affect of trehalose on specific protein-protein interactions, the ability of trehalose to interfere with the ability of biotin to bind to a SA surface was measured. Biotin in either 10% or 100% FBS was allowed to react with the SA surface with the 5.8 nm PWV shift, and the resulting shift measured (see Table 8). The theoretical shift resulting from Biotin binding, shown in parenthesis, was calculated from the following formula: (Mol. Wt. of Biotin/Mol. Wt. of SA)×# of binding sites on SA for biotin×SA shift, or (244/55000)×4 (binding sites)×5.8 nm (SA shift).
# [2] = Sugars binding to amine surfaces (PWV change); conditions: for PWV change after over night incubation and wash: stored overnight in water
# Description: Lactose and glyceraldehyde solutions in water at 5% and 2.5% respectively were added to a BIND™ sensor plate functionalized with amine functional groups for 2 hrs. The plate was then washed thoroughly with water and stored overnight in water. The plates were then washed again with water and the binding of sugars was measured.
# [3] = SA binding to the aldehyde surface (PWV shift)
# Description: (§1) 40 μl of 5% Trehalose solution was added to SA immobilized wells (0.05 mg/ml SA and 0.2 mg/ml SA) and control wells (Trehalose alone) and were allowed to bind for 2 hrs. The plates were washed and the peak wavelength value (PWV) shift was measured (See Table 6 and FIG. 2). The SA shift was the PWV of SA binding to the aldehyde surface, while the blocker shift was the PWV shift obtained after the blocker was allowed to bind to the unreacted aldehyde functional groups on the SA-immobilized aldehyde surface. The unreacted aldehydes are more easily accessed by the small blocker molecule than the bigger SA molecules. The blocker shift is lower with higher SA concentration likely because there are less aldehydes available for binding the blocker in these wells.
# SA surface [4] = target: T1, SA surface; assay: Trehalose efficacy to reduce non-specific FBS binding to the SA surface; conditions: for FBS 10% binding to SA surface (shift normalized to trehalose shift) / FBS 100% binding to SA surface (shift normalized to trehalose shift): blocked with 5% Trehalose
# Description: In order to test the efficacy of trehalose to reduce non-specific binding, the ability of trehalose to reduce Fetal Bovine Serum (FBS) binding to the SA surface was measured. 10% and 100% commercially available FBS was allowed to react with either the SA surface with the 2 nm PWV shift or the 5.8 nm PWV shift, and the resulting shift measured (see Table 7 and FIG. 3). The shifts were normalized to the trehalose shift by considering the resulting signal after the surface has been blocked to be zero, or baseline. The change in binding due to the protein present in FBS is then measured and reported as non-specific binding.
# [5] = Blocking of streptavidin (SA) surface with 5% trehalose (blocker PWV shift); assay type: binding; conditions: 2 hrs
# Description: as §1
molecule,measurement,setting,value
"NS(=O)(=O)C(=O)O [CBS, Carboxysulfonamide]",PWV shift of CBS binding to CA,Carbonic Anhydrase (CA); CBS 0.05 μM,0.000 nm
same,PWV shift of CBS binding to CA,Carbonic Anhydrase (CA); CBS 0.10 μM,0.001 nm
same,PWV shift of CBS binding to CA,Carbonic Anhydrase (CA); CBS 0.20 μM,0.003 nm
same,PWV shift of CBS binding to CA,Carbonic Anhydrase (CA); CBS 0.39 μM,0.005 nm
same,PWV shift of CBS binding to CA,Carbonic Anhydrase (CA); CBS 0.78 μM,0.010 nm
same,PWV shift of CBS binding to CA,Carbonic Anhydrase (CA); CBS 1.56 μM,0.020 nm
same,PWV shift of CBS binding to CA,Carbonic Anhydrase (CA); CBS 3.13 μM,0.037 nm
same,PWV shift of CBS binding to CA,Carbonic Anhydrase (CA); CBS 6.25 μM,0.045 nm
same,PWV shift of CBS binding to CA,Carbonic Anhydrase (CA); CBS 12.50 μM,0.054 nm
same,PWV shift of CBS binding to CA,Carbonic Anhydrase (CA); CBS 25.00 μM,0.054 nm
same,PWV shift of CBS binding to CA,Carbonic Anhydrase (CA); CBS 50.00 μM,0.062 nm
O=C(O)CCCC[C@@H]1SC[C@@H]2NC(=O)N[C@@H]21 [Biotin],theoretical shift resulting from Biotin binding (in parenthesis),SA surface [1]; (244/55000) x 4 binding sites x 5.8 nm SA shift,0.104 nm
same,shift from biotin binding to SA surface,"SA surface [1]; biotin in FBS 10%, 5% Trehalose",0.09 nm
same,shift from biotin binding to SA surface,"SA surface [1]; biotin in FBS 10%, No Trehalose",0.08 nm
same,shift from biotin binding to SA surface,"SA surface [1]; biotin in FBS 100%, 5% Trehalose",0.1 nm
same,shift from biotin binding to SA surface,"SA surface [1]; biotin in FBS 100%, No Trehalose",0.12 nm
OC[C@H]1O[C@@H](O[C@H]2[C@H](O)[C@@H](O)C(O)O[C@@H]2CO)[C@H](O)[C@@H](O)[C@H]1O (stereo partly shown) [Lactose],PWV change after 2 hr incubation and wash,[2]; 5% solution in water,4.86 nm
same,PWV change after over night incubation and wash,[2]; 5% solution in water,4.82 nm
streptavidin [SA],SA shift,[3]; 0.05 mg/mL SA during immobilization,2.00 Nm
same,SA shift,[3]; 0.2 mg/mL SA during immobilization,5.81 Nm
"O=CC(O)CO (stereo not shown) [Glyceraldehydes, glyceraldehyde]",PWV change after 2 hr incubation and wash,[2]; 2.5% solution in water,1.75 nm
same,PWV change after over night incubation and wash,[2]; 2.5% solution in water,1.72 nm
OC[C@H]1O[C@H](O[C@H]2O[C@H](CO)[C@@H](O)[C@H](O)[C@H]2O)[C@H](O)[C@@H](O)[C@@H]1O [Trehalose],interference with biotin binding to SA,SA surface [1],does not seem to interfere with biotin binding
same,effect on non-specific binding of proteins from FBS to the SA surface,SA surface [4],reduced the non-specific binding of proteins from FBS to the SA surface
same,FBS 10% binding to SA surface (shift normalized to trehalose shift),SA surface [4]; SA shift 2 nm surface,2.41 nm
same,FBS 100% binding to SA surface (shift normalized to trehalose shift),SA surface [4]; SA shift 2 nm surface,1.27 nm
same,FBS 10% binding to SA surface (shift normalized to trehalose shift),SA surface [4]; SA shift 5.8 nm surface,0.62 nm
same,FBS 100% binding to SA surface (shift normalized to trehalose shift),SA surface [4]; SA shift 5.8 nm surface,0.07 nm
same,Blocker shift 5% Trehalose,[5]; aldehyde surface (no streptavidin),2.91 nm
same,Blocker shift 5% Trehalose,[5]; wells immobilized with 0.05 mg/mL SA,2.96 nm
same,Blocker shift 5% Trehalose,[5]; wells immobilized with 0.2 mg/mL SA,2.19 nm
